From article PMC6426897, “Inhibition of NLRP3 inflammasome activation by cell-permeable stapled peptides” (Scientific Reports, 2019)
Where a SMILES comes first, the peptide text is derived from it. Bridges are numbered along the chain shown (N, C = ends). [ ]: non-standard residue; d: D form. R8 = C=CCCCCCC[C@@](C)(N)C(=O)O; S5 = C=CCCC[C@](C)(N)C(=O)O

Assays:
NLRP3 inflammasome [1] = experiment: Western blot of processed IL-1β p17 and Casp-1 p20 in THP-1 supernatants and of pro-forms in lysates; format: cell-based, human; details: THP-1, LPS/nigericin, Fig. 8D
Method: (§1) THP-1 cells and monocytes were incubated with NLRP3^PYD (12.5–25–50 μM), ASC^PYD #5 (12.5-25-50-100 μM) or ASC^PYD #6 (12.5-25-50-100 μM) for the indicated durations. Cells were then washed once with PBS and primed with E. coli LPS (0.1 μg/ml, Invivogen) for 4 h followed by stimulation with nigericin (10 μM) for an additional 1 h or ATP ([…]) for an additional 30 min. The cell culture supernatants were then collected and centrifuged at 500 × g to remove cells and cellular debris.
Cell-free supernatants were mixed 1:4 to cold acetone and incubated at −20 °C for at least 1 h. The mixtures were then centrifuged at 15,000 rpm for 15 min at 4 °C. Supernatants were discarded and pellets re-suspended in 1X Laemmli buffer. Total cell lysates were prepared using RIPA buffer containing 150 mM NaCl, 0.5% sodium deoxycholate, 0.1% SDS, 50 mM Tris-HCl pH 8.0 and 1% Triton-X-100. Protein concentrations were determined by BCA assay (Thermo Scientific, cat. 23227) following the manufacturer’s instructions. Lysates were reconstituted in Laemmli buffer (20–50 μg), boiled and separated by SDS–PAGE, and transferred onto PVDF membranes. […]

NLRP3 inflammasome [2] = experiment: IL-1β release from THP-1 cells stimulated with LPS and nigericin (ELISA); format: cell-based, human; details: THP-1, LPS 0.1 μg/ml 4 h, nigericin 10 μM 1 h, Fig. 8A
Method: We next examined whether the ASC peptides could inhibit IL-1β production, which is regulated by the inflammasome. We used THP-1 human monocytic cells to study inflammasome activation as they express high levels of NLRP3, ASC, and pro-casp-1. THP-1 cells were incubated with ms_ASC^PYD #1–6 or ms_NLRP3^PYD peptides at increasing concentrations for 4 hours and were then stimulated with LPS for 4 hours, followed by the NLRP3 activator nigericin for 1 hour. IL-1β levels were measured in the culture supernatant. […] The ms_ASC^PYD peptides reduced IL-1β production from THP-1 cells in response to LPS/nigericin stimulation to variable degrees (Fig. 6A). […] We decided to continue investigating in detail the inhibitory effects of ms_ASC^PYD #5 and #6 peptides, as their estimated binding energies matched well with the experimental data of suppression of ASC-dependent IL-1 release in a dose-dependent manner. Since ms_ASCPYD #6 is the shorter version of ms_ASCPYD #5, this selection also enabled us to verify the effect of varying peptide lengths.
(§2) Human monocytic THP-1 cells (1 × 10^7 cells) were plated in a 10-cm tissue culture dish and treated with PMA (200 nM) overnight to differentiate monocytic cells into macrophages. Cells were then washed and allowed to rest in fresh media for another day. For stimulation, differentiated THP-1 cells were trypsinized and seeded in 96-well plates (2 × 10^6/well). Peripheral blood mononuclear cells were isolated by Ficoll-Hypaque density gradient centrifugation from buffy coats obtained from anonymous donors provided by the National University Hospital Blood Bank, Singapore. Isolation of monocytes was performed using negative selection with the Monocyte Isolation Kit II (Miltenyi Biotech), following the manufacturer’s instructions. Monocytes were plated in tissue culture non-treated 96-well plates (2.5 × 10^5/well) in 250 µl RPMI 1640-Glutamax media supplemented with 3% human AB serum (Gemini Bio Products).
as §1
(§3) IL-1β levels were measured using antibodies from eBioscience (cat. #14-7018-81 and #13-7016-85), following the manufacturer’s instructions. IL-18 levels were measured using antibodies from MBL (D044-3 and D045-6) following the manufacturer’s instructions. The absorbance was measured at 450 nm with the reference wavelength at 570 nm, using an M200 Infinite plate reader (Tecan).

NLRP3 inflammasome [3] = experiment: IL-18 release from THP-1 cells stimulated with LPS and nigericin (ELISA); format: cell-based, human; details: THP-1, LPS/nigericin; 12.5, 25, 50 and 100 μM; Fig. 8A
Method: as §2, with “Products). […]” for “Products).”
as §3

[4] = Circular dichroism, percentage of helicity (K2D3); format: physicochemical; details: CD, room temperature, water, 100 μM peptide; estimated with K2D3
Source text: The conformation of helix 2 (^16TAEELKKFKLKLLSV^30) bound to ASC^PYD (Fig. 1A) was used as the starting structure for the peptide-protein interaction modeling. Following I,I + 7 stapling scheme, we inserted a hydrocarbon staple across positions 5 and 12 along the peptide and then introduced mutations to produce a set of stapled peptides. Two variants of the template peptide were designed – a short version containing 13 residues (ms_ASC^PYD #6) and a long version containing 15 residues (ms_ASC^PYD #1–5) with two additional residues at the N-terminus (Table 1). These two additional residues were inserted to increase the length of the peptide, thus potentially enabling sufficient conformational flexibility for the region involving the critical Arg3 to remain helical. A similar approach was taken to introduce the staple in the ms_NLRP3^PYD peptide. As determined from Circular Dichroism (CD) spectra, inserting the I,I + 7 staple had the intended effect of increasing helicity of the peptides (Fig. 3). […] Percentage of helicity was much higher for ASC^PYD stapled peptides #5 and #6, 95% and 70% respectively at 100 μM peptide concentration. Percentage of helicity for the peptides were estimated from the web server K2D3[36] using CD data.
Figure 3 Circular dichroism (CD) spectra of (A) NLRP3^PYD and (B) ASC^PYD peptides to measure secondary structures.

SMILES | Caspase-1 activation (caspase-1 p20 in supernatants) (NLRP3 inflammasome [1]) | Inhibition of IL-1β production (NLRP3 inflammasome [2]; 50 μM peptide) | Inhibition of IL-1β production (NLRP3 inflammasome [2]; 100 μM peptide) | IL-18 production (in words) (NLRP3 inflammasome [3]) | Percentage of helicity [4]
CC[C@H](C)[C@@H]1NC(=O)[C@H](CCCCN)NC(=O)[C@H](C)NC(=O)[C@H](CC(C)C)NC(=O)[C@H](CCCCN)NC(=O)[C@](C)(NC(=O)[C@H](C)NC(=O)[C@H](CCCNC(=N)N)NC(=O)[C@H](C)NC(=O)[C@@H](NC(C)=O)[C@@H](C)O)CCCCCCC=CCCC[C@@](C)(C(=O)N[C@@H](CCC(=O)O)C(=O)N[C@@H](CO)C(=O)N[C@H](C(N)=O)C(C)C)NC(=O)[C@H](CCCCN)NC1=O [ms_ASC^PYD #5] (Ac-TARA[R8]KLAKIK[S5]ESV-NH2; staple 5-12) | reduced caspase-1 activation in a dose-dependent manner | > 60% | > 90% | decreased IL-18 production by LPS/nigericin-stimulated THP-1 cells in a dose-dependent manner | 95%
CC[C@H](C)[C@@H]1NC(=O)[C@H](CCCCN)NC(=O)[C@H](C)NC(=O)[C@H](CCCCN)NC(=O)[C@H](CCCCN)NC(=O)[C@](C)(NC(=O)[C@H](C)NC(=O)[C@H](CCCNC(=N)N)NC(C)=O)CCCCCCC=CCCC[C@@](C)(C(=O)N[C@@H](CCC(=O)O)C(=O)N[C@@H](CO)C(=O)N[C@H](C(N)=O)C(C)C)NC(=O)[C@H](CCCCN)NC1=O [ms_ASC^PYD #6] (Ac-RA[R8]KKAKIK[S5]ESV-NH2; staple 3-10) | reduced caspase-1 activation in a dose-dependent manner | > 60% | > 90% | decreased IL-18 production by LPS/nigericin-stimulated THP-1 cells in a dose-dependent manner | 70%
